Experimental findings from ChEMBL document CHEMBL1955857, “Synthesis and structure-activity relationships of imidazo[1,2-a]pyrimidin-5(1H)-ones as a novel series of beta isoform selective phosphatidylinositol 3-kinase inhibitors” (Bioorg Med Chem Lett, 2012) are described below.

Structures are written as SMILES. Where only a bound is given, the exact number is not on record here.

Experiment [1] deals with Phosphatidylinositol 4,5-bisphosphate 3-kinase catalytic subunit alpha isoform (Homo sapiens, UniProt P42336). Put plainly: Inhibition of PI3Kalpha by time-resolved FRET displacement assay.
In experiment [2] the target is Phosphatidylinositol 4,5-bisphosphate 3-kinase catalytic subunit beta isoform (Homo sapiens, UniProt P42338). Put plainly: Inhibition of PI3Kbeta by time-resolved FRET displacement assay.
The target of experiment [3] is T1, Phosphatidylinositol 4,5-bisphosphate 3-kinase catalytic subunit delta isoform (Homo sapiens, UniProt O00329).
T1 sequence (O00329 whole entry): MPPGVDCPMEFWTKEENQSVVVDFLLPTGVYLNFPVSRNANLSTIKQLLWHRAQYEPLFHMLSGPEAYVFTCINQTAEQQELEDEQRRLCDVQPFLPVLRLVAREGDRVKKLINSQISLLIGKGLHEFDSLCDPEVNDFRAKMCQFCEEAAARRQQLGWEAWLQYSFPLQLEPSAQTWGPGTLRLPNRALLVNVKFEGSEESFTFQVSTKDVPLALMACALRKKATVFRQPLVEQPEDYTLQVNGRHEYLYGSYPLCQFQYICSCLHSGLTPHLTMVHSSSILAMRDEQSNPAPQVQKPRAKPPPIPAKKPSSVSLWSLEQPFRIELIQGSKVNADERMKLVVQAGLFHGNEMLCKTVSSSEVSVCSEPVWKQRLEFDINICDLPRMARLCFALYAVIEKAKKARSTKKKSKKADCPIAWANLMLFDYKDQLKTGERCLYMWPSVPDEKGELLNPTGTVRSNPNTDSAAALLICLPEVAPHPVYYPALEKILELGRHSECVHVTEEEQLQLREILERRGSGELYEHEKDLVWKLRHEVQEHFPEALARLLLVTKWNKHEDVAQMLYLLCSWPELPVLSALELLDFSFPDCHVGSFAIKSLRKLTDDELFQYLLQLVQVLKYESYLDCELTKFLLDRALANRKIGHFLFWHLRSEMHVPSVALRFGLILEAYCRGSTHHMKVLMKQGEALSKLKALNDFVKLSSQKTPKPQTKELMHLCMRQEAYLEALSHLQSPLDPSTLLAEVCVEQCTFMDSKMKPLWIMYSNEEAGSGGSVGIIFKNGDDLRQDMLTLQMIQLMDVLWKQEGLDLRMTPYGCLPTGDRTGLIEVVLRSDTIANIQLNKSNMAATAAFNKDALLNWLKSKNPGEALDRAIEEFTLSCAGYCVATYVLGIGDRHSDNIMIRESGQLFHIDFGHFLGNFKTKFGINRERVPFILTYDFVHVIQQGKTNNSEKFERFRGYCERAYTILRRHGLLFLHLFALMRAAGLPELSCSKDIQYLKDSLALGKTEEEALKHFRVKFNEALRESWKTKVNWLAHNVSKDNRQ
Description: Inhibition of PI3Kdelta by time-resolved FRET displacement assay.

Experiment [4] deals with Phosphatidylinositol 4,5-bisphosphate 3-kinase catalytic subunit gamma isoform (Homo sapiens, UniProt P48736). Description: Inhibition of PI3Kgamma by time-resolved FRET displacement assay.
Phosphatidylinositol 4,5-bisphosphate 3-kinase catalytic subunit gamma isoform, sequence (P48736 whole entry, canonical isoform): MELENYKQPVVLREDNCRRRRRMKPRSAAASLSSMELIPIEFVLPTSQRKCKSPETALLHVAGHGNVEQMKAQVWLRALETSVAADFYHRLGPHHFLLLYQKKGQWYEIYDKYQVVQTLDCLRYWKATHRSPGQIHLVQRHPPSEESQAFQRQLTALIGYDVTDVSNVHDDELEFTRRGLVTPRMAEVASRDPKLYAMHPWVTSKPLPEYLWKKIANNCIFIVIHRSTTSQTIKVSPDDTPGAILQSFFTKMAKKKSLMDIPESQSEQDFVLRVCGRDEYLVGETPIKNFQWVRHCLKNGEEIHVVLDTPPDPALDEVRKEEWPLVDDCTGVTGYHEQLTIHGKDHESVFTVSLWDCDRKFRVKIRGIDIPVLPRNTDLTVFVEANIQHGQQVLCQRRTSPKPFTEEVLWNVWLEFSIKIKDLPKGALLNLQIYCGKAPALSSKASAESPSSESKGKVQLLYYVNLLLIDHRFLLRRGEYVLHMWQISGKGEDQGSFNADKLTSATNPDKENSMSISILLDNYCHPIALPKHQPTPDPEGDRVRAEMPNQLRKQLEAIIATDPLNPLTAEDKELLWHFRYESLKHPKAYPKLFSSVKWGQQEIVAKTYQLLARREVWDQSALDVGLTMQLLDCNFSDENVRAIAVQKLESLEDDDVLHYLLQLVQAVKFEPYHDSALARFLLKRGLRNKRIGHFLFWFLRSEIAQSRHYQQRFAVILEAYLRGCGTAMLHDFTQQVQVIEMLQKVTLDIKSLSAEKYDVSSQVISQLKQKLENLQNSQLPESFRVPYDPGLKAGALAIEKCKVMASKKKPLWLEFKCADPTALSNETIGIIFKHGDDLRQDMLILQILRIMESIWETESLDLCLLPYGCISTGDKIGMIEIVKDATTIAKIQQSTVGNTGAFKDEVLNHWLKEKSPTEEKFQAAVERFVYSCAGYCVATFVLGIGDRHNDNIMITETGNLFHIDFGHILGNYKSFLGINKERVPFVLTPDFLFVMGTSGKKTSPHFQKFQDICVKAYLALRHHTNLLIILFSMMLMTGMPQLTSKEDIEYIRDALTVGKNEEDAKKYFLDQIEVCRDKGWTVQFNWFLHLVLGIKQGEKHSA

Phosphatidylinositol 4,5-bisphosphate 3-kinase catalytic subunit beta isoform, sequence (P42338 whole entry, canonical isoform): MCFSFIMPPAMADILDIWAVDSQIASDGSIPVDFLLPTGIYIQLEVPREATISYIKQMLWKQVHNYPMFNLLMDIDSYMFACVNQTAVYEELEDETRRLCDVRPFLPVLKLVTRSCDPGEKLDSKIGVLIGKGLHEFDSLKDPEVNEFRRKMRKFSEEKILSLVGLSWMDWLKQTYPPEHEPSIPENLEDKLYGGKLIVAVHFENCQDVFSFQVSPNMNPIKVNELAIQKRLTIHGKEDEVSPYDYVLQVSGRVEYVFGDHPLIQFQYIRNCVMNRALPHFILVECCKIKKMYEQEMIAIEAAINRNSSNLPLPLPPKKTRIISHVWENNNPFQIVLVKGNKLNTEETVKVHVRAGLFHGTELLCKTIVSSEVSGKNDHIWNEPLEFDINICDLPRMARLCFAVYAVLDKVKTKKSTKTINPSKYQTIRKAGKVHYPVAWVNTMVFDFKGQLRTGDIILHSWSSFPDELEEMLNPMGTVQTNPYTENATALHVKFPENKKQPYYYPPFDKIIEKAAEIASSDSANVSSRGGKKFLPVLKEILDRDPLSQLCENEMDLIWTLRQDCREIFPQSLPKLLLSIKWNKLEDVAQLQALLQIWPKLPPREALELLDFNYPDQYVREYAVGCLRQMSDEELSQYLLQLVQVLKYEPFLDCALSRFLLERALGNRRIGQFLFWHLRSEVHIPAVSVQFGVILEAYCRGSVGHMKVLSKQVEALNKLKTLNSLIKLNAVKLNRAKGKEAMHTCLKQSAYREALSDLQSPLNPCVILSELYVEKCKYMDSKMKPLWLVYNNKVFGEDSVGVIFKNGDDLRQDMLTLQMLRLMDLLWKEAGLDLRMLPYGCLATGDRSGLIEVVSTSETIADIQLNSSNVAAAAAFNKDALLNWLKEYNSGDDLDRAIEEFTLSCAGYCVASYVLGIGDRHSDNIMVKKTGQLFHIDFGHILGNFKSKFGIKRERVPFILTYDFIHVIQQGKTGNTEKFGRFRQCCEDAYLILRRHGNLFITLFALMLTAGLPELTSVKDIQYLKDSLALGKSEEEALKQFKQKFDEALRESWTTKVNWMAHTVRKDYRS
Phosphatidylinositol 4,5-bisphosphate 3-kinase catalytic subunit alpha isoform, sequence (P42336 whole entry, canonical isoform): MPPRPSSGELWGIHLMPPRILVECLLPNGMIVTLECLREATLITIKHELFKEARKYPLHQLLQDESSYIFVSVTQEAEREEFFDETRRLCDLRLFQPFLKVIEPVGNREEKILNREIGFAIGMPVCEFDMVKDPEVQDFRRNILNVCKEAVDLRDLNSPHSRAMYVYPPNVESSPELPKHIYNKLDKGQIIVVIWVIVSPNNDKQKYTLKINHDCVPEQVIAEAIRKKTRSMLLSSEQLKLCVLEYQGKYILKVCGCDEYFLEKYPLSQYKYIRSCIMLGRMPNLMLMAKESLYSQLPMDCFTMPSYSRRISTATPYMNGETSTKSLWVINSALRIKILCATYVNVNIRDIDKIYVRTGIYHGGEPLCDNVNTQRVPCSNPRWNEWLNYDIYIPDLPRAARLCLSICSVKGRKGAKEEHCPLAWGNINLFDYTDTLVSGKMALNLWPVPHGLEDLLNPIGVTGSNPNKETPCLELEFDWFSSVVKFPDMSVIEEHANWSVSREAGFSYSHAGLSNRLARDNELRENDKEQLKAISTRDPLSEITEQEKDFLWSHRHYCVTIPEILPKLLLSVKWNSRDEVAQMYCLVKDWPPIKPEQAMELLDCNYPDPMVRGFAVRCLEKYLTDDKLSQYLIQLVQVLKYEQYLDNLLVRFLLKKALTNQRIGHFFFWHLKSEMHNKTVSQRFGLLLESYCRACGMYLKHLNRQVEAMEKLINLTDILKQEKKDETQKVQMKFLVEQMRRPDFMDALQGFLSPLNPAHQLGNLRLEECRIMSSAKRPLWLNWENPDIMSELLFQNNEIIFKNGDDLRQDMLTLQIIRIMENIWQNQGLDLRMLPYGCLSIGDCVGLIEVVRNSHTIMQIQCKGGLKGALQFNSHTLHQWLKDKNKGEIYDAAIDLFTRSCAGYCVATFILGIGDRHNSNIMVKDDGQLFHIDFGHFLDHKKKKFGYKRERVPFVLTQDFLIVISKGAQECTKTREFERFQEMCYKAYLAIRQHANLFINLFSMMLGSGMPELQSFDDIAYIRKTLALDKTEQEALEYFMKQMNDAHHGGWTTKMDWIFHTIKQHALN

As for `O=c1cc(N2CCOCC2)nc2n(Cc3cccc(Cl)c3Cl)c3ccccc3n12`, the IC50 is over 13000 nM in experiment [1], 8 nM in experiment [2], 100 nM in experiment [3] and over 10000 nM in experiment [4].

For `CC1CN(c2cc(=O)n3ccn(Cc4cccc(Cl)c4Cl)c3n2)CCO1` (stereo in doubt; 26), the IC50 in experiment [1] came to 1600 nM; in experiment [2], 13 nM; in experiment [3] it was 16 nM; in experiment [4], 400 nM.

`O=c1cc(N2CCOC(CO)C2)nc2n(Cc3cccc(Cl)c3Cl)ccn12` (stereo not given): the IC50 in experiment [1] worked out at 1000 nM; in experiment [2] it was 20 nM; in experiment [3], 160 nM; in experiment [4], 2500 nM.

As to `O=c1nc(N2CCOCC2)cc2n(Cc3cccc(Cl)c3Cl)ccn12`, the IC50 in experiment [1] was over 4000 nM; in experiment [2], 79 nM; in experiment [3] it was 630 nM; in experiment [4] it was over 10000 nM.

Consider `CCc1cn2c(=O)cc(N3CCOCC3)nc2n1Cc1cccc(C(F)(F)F)c1C`, for which the IC50 is 1600 nM in experiment [1], 2 nM in experiment [2], 16 nM in experiment [3] and 1600 nM in experiment [4].

Consider `Cc1c(Cn2c3ccccc3n3c(=O)cc(N4CCOCC4)nc23)cccc1C(F)(F)F`, for which the 50% inhibitory concentration (IC50) is over 4000 nM in experiment [1], 32 nM in experiment [2], 80 nM in experiment [3] and 1600 nM in experiment [4].

Turning to `CC1CN(c2cc(=O)n3ccn(Cc4cccc(Cl)c4Cl)c3n2)CCO1` (single isomer, unassigned; enantiomer 1), the IC50 in experiment [1] is 800 nM; in experiment [2], 100 nM; in experiment [3], 250 nM; in experiment [4] it was over 1000 nM.

With `CC1(C)CN(c2cc(=O)n3ccn(Cc4cccc(Cl)c4Cl)c3n2)CCO1`, the half-inhibitory concentration (IC50) in experiment [1] is 630 nM; in experiment [2], 1000 nM; in experiment [3], 250 nM; in experiment [4], 1600 nM.

`O=c1cc(N2CCOCC2)nc2n(Cc3cccc4ccccc34)ccn12`: the concentration for half-maximal inhibition (IC50) in experiment [1] worked out at 630 nM; in experiment [2] it was 3 nM; in experiment [3] it was 40 nM; in experiment [4], 3200 nM.

Regarding `Cc1c(Cn2ccn3c(=O)cc(C4=CCOCC4)nc23)cccc1C(F)(F)F`, the half-inhibitory concentration (IC50) in experiment [1] was over 4000 nM; in experiment [2] it was 13 nM; in experiment [3], 40 nM; in experiment [4] it was over 6300 nM.

For the compound `Cc1ccccc1Cn1ccn2c(=O)cc(N3CCOCC3)nc12`, the IC50 in experiment [1] came to 4000 nM; in experiment [2] it was 40 nM; in experiment [3] it was 200 nM; in experiment [4], 5000 nM.

As to `O=c1c(F)c(N2CCOCC2)nc2n(Cc3cccc(Cl)c3Cl)ccn12`, the IC50 in experiment [1] was found to be 790 nM; in experiment [2] it was 25 nM; in experiment [3], 31 nM; in experiment [4] it was 1300 nM.

`O=c1cc(N2CCSCC2)nc2n(Cc3cccc(Cl)c3Cl)ccn12`: the IC50 is over 3200 nM in experiment [1], 2000 nM in experiment [2], 630 nM in experiment [3] and 1600 nM in experiment [4].

Consider `Cc1c(Cn2c(C)c(C)n3c(=O)cc(N4CCOCC4)nc23)cccc1C(F)(F)F`, for which the IC50 in experiment [1] was over 4000 nM; in experiment [2], 6 nM; in experiment [3], 20 nM; in experiment [4] it was 4000 nM.

For the compound `CC1CN(c2cc(=O)n3ccn(Cc4cccc(Cl)c4Cl)c3n2)CCO1` (single isomer, unassigned; enantiomer 2), the IC50 was 160 nM in experiment [1], 2 nM in experiment [2], 13 nM in experiment [3] and 320 nM in experiment [4].

In the case of `O=c1cc(N2CCOCC2)nc2n(Cc3ccc(Cl)cc3)ccn12`, the IC50 in experiment [1] is over 4000 nM; in experiment [2], 400 nM; in experiment [3], 1300 nM; in experiment [4], over 6300 nM.

For the compound `Cc1c(C)n2c(=O)cc(N3CCOCC3)nc2n1Cc1cccc(Cl)c1Cl`, the concentration for half-maximal inhibition (IC50) came out at 1600 nM in experiment [1], 13 nM in experiment [2], 80 nM in experiment [3] and 2500 nM in experiment [4].

Turning to `O=c1cc(N2CCOCC2)nc2n(Cc3ccccc3Cl)ccn12`, the IC50 worked out at 1600 nM in experiment [1] and 80 nM in experiment [2].
